Assays:
[1] = tested on: prostate epithelial cells; assay: H&E staining of prostate tissue, prostate epithelial cell thickness; format: in vivo, Sprague-Dawley (SD) rats; settings: TP-induced BPH rats, FIG. 3B
Protocol: To induce benign prostatic hyperplasia, rats were divided into four groups, and six animals were randomly assigned to each group. Three groups among them were injected with TP (5 mg/kg/day) into the groin for 4 weeks, and one group, a normal control group, was injected with the same amount of ethanol. After induction of benign prostatic hyperplasia for 4 weeks, the experiment was performed by various treatment as follows: (i) a normal control group injected with ethanol for an additional four weeks (NC group); (ii) a disease control group injected with TP for an additional four weeks (benign prostatic hyperplasia, BPH group); […] Prostate samples fixed in paraffin were cut to a thickness of 4 μm. […] Tissue sections were treated in 150 μl of 0.1% trypsin working solution (composition: trypsin 0.4 ml, calcium 0.01 g, chloride 0.01 g in D.W. 7 ml) for 15 minutes, and then blocked using fetal bovine serum (FBS). For H&E staining, the cut tissue was immersed in hematoxylin solution for 5 minutes, distilled water for 5 minutes, and eosin solution for 30 seconds, and then dried and fixed. The slides were observed using an Olympus IX71 Research Inverted Phase microscope (Olympus Co., Tokyo, Japan), and the density was measured using ImageJ 1.47v software (National Institute of Health, MD, USA).

cyclin B1 = assay: Cyclin B1 expression in prostate tissue, Western blot; format: in vivo, Sprague-Dawley (SD) rats; settings: Example 11.5, FIG. 15; comparison with finasteride
[2] = tested on: prostate specific antigen (PSA); assay: Prostate specific antigen expression in prostate tissue, Western blot; format: in vivo, Sprague-Dawley (SD) rats; settings: Example 11.2, FIG. 12; comparison with finasteride
[3] = tested on: benign prostatic hyperplasia animal model; assay: Prostate tissue weight and prostate index in TP-induced benign prostatic hyperplasia rats; format: in vivo, Sprague-Dawley (SD) rats; settings: FIG. 2 upper
Protocol: For the benign prostatic hyperplasia animal model, 12-week-old male Sprague-Dawley (SD) rats (200±20 g) were purchased and tested from Daehan Biolink (Eumseong, Korea). After an acclimatization period for 1 week before the start of the experiment, feed and water were freely ingested for 6 weeks during the experiment. In an environment in which the light was controlled at intervals of 12 hours, the indoor temperature was 23±2° C., and the humidity was maintained at 70%. To induce benign prostatic hyperplasia, rats were divided into four groups, and six animals were randomly assigned to each group. Three groups among them were injected with TP (5 mg/kg/day) into the groin for 4 weeks, and one group, a normal control group, was injected with the same amount of ethanol. After induction of benign prostatic hyperplasia for 4 weeks, the experiment was performed by various treatment as follows: (i) a normal control group injected with ethanol for an additional four weeks (NC group); (ii) a disease control group injected with TP for an additional four weeks (benign prostatic hyperplasia, BPH group); […] In addition, in order to correct the difference in tissue weight according to body weight, the prostate index was calculated by dividing the weight of the prostate in mg with respect to 100 g of body weight.

[4] = tested on: sperm count in the epididymis; assay: Analysis of sperm count in epididymis; format: in vivo, SD rats; settings: cauda epididymis of BPH rats; FIG. 17
Protocol: After excision of cauda epididymis from […] SD rats, it was cut into small pieces twice. Then, they were immersed in 4 ml of PBS for 1 hour to cause the sperm to spread into the PBS solution. After mixing PBS containing sperm with the same amount of methanol, they were observed using a hematocytometer and an Olympus IX71 Research Inverted Phase microscope (Olympus Co., Tokyo, Japan).
In order to check the sperm count, after excision of the cauda epididymis of the SD rat group used in the above-mentioned Examples, it was cut into small pieces twice. Then, they were placed in 4 ml of PBS for 1 hour to allow the sperm to spread into the PBS solution. After mixing PBS containing sperm with the same amount of methanol, they were observed using a hematocytometer and an Olympus IX71 Research Inverted Phase microscope.

[5] = tested on: proliferating cell nuclear antigen (PCNA); assay: PCNA expression in prostate tissue, Western blot; format: in vivo, Sprague-Dawley (SD) rats; settings: Example 11.4, FIG. 14; comparison with finasteride
[6] = tested on: dihydrotestosterone (DHT); assay: Dihydrotestosterone (DHT) assay by ELISA in BPH rats; format: in vivo, Sprague-Dawley (SD) rats; settings: Example 11.1, FIG. 11; comparison with finasteride

## CC(C)(C)NC(=O)[C@H]1CC[C@H]2[C@@H]3CC[C@H]4NC(=O)C=C[C@]4(C)[C@H]3CC[C@]12C [finasteride]
[1]; BPH group 12.06 μm, NC group 9.68 μm
  thickness of prostate epithelial cells: 9.38 μm
[1]
  prostate epithelial cell thickness reduced compared to the BPH group: 22%
Cyclin B1
  cyclin B1 expression inhibited based on the BPH group: 41%
[2]
  PSA expression inhibited based on the BPH group: 55%
[3]; TP-induced BPH rats, UM-002 50 mg/kg/day or finasteride 1 mg/kg/day for 4 weeks, BPH group 1.73 g, NC group 0.73 g
  average prostate weight: 0.93 g
[3]; vs BPH group 1.73 g
  prostate weight lower than that of the BPH group: 54%
[4]
  sperm count compared to the NC group: 56%
[5]
  PCNA expression inhibited based on the BPH group: 45%
[6]
  DHT expression inhibited based on the BPH group: 77%

— patent US12458678B2, “Composition for preventing or treating prostatic hyperplasia comprising mixed extracts of Curcumae radix and Syzygii flos” (UNIVERSITY-INDUSTRY COOPERATION GROUP OF KYUNG HEE …, priority 2019, dated 2025)
